# Measured values: paper PMC5707064, “Proteoglycan-targeting applied to hypoxia-activated prodrug therapy in chondrosarcoma: first proof-of-concept” (Oncotarget, 2017)
# Read-outs that look alike come from different tables or passages of the source.
# How the values were obtained:
# [1] = system: HEMC-SS chondrosarcoma cells (monolayer); assay: In vitro proliferation assay (AlamarBlue), HEMC-SS monolayer culture; assay type: cell-based, human; conditions: for IC50: Homo sapiens; for HCR (hypoxic-cytotoxic ratio) Monolayer: normoxia vs hypoxia IC50
# Method: Human HEMC-SS chondrosarcoma cell line was obtained from the European Collection of Authenticated Cell Cultures and cultured in DMEM/F12 medium (Life Technologies) supplemented with 10% fetal calf serum (Dutscher) and 4 μg/mL gentamicin.
# (§1) After trypsinization, HEMC-SS cells were seeded in 96-well plates at a density of 20.10^3 cells in 150 μL of the corresponding culture medium and allowed to adhere overnight. For 3D cell culture, Day 10 spheroids were used. Increasing drug concentrations diluted in DMSO (maintaining final DMSO concentration at 0.5% (v/v)) were added. After plate incubations for 24 hours in normoxic (21% O2, 5% CO2, 37 °C) or hypoxic (N2, O2 < 0.3%, 37 °C) conditions, the culture media were removed and 2D and 3D cells were washed with PBS and left to grow for 48 hours in normoxic conditions. Viability of cells cultured in monolayer or spheroids was quantified by AlamarBlue assay. Cytotoxic activity was expressed as the drug concentration that inhibited cell growth by 50% (IC50). Experiments were performed in triplicates. Data are represented as means ± SD. Statistical significance was determined using one-way ANOVA followed by Tukey's post-hoc multiple comparisons test. Results were considered significant at p < 0.05.
# [2] = system: HEMC-SS xenograft model; assay: In vivo antitumor efficacy on HEMC-SS xenograft model; parameters: species or system SCID mice; conditions: for Antitumor effect (tumor volume vs controls): 6 i.v. injections at 4-day intervals, 8-QA and 8 47.0 μmol/kg, 10-QA 46.7 μmol/kg
# Method: In vivo studies were carried out on 50 female Severe Combined ImmunoDeficiency (SCID) mice aged 4–5 weeks old (Janvier Labs). All animal studies were carried out in accordance with the directive 2010/63/EU after approval by the institutional review board (C2E2A, authorization #CE85-12).
# To obtain in vivo tumors, 10^7 HEMC-SS cells in 100 μL of PBS were injected with 100 μL of Matrigel® (BD Biosiences) subcutaneously into the right flank of the mice.
# The antitumor efficiency of 8-QA was first studied respectively to its non-QA equivalent (8) used as negative control for proteoglycan targeting. In a second independent study, we evaluated the antitumor activity of non-hypoxia activated derivative (10-QA) used as negative control of hypoxia activation, respectively to another control group. For both studies, at 21 days post-cell inoculation mice were randomized into three or two groups (10–12 animals per group). Treatment protocol consisted in 6 doses at 4-day intervals injected by i.v route: 8-QA (47.0 μmol/kg) and 10-QA (46.7 μmol/kg)were injected at 50% of Maximum Tolerated Dose (MTD) while non-targeted derivative 8 (47.0 μmol/kg) was injected at equimolar dose of 8-QA. All molecules were diluted in saline with 2% ethanol. Control animals received vehicle according to the same schedule.
# Tumor volume (TV) was calculated using the following formula:
# TV (mm^3) = [length x (width)^2]/2.
# Tumor Growth Inhibition (TGI) was calculated as follows: TGI (%) = [1-(Tn/Cn)] × 100, where Tn is the tumor volume of the treated group at day n and Cn the tumor volume of the control group at day n.
# Data are represented as means ± SD. For antitumor efficiency and mouse weight monitoring, statistical significance was determined using two-way ANOVA. For tumor weight, mitosis number and hematological analyses, statistical significance was determined using one-way ANOVA. Both tests were followed by Tukey's post-hoc multiple comparisons test. Results were considered significant at p < 0.05.
# [3] = system: HEMC-SS xenograft tumors; assay: Characterization of treated tumors (histology, western blot, immunohistochemistry); assay type: in vivo, SCID mice; conditions: for γH2AX-positive cells in pimonidazole-positive hypoxic tumor areas: immunostaining on consecutive tumor sections
# Method: The day after the last dose, 50% of animals of each group were euthanized by CO2 inhalation, and tumors were sampled for histology and immunohistochemistry analyses (n≥3 tumors samples per group of treatment).
# Approximately 30 μg of proteins from tumors (n = 3 independent tumor samples per group of treatment) recovered one day after last dose were loaded onto 10% acrylamide gels and separated by SDS-PAGE. Proteins were then transferred to nitrocellulose membranes (Millipore) and incubated with specific primary antibodies p53S15 (Cell Signaling), p21 (Santa Cruz), p-Chk1 (S345) (Cell Signaling) or GAPDH (Santa Cruz) used as housekeeping protein. Antibody-antigen interaction was evidenced by chemiluminescence (Amersham) using HRP-conjugated secondary antibodies (Southern Biotech). Signal was detected and quantified using Image Lab software (BioRad). Data are represented as means ± SD. Statistical significance was determined using one-way ANOVA followed by Tukey's post-hoc multiple comparisons test. Results were considered significant at p < 0.05.
# For tumors, the exogenous hypoxia marker pimonidazole hydrochloride (Hypoxyprobe™) was i.p.-injected at 60 mg/kg one hour before mice were euthanized. Tumors were removed, fixed in 10% neutral buffered formalin, and embedded in paraffin. For spheroid cultures, pimonidazole was added at a final concentration of 200 μM two hours before fixation and paraffin-embedding.
# Five μm-thick sections were cut and adhered to poly-L-Lysine-coated glass microscope slides. After deparaffinization and rehydration, slides were stained by haematoxylin–eosin (H&E) or Alcian blue (pH 1) to visualize aggrecan or used for immunohistochemistry. After antigen retrieval, endogenous peroxidase quench and saturation, slides were incubated with the primary antibody: anti-Ki 67 (Abcam) rabbit polyclonal antibody (1/2000, 11 hours, RT), anti-pimonidazole (Hypoxyprobe™) mouse monoclonal antibody (1/100, 30 minutes, RT) or anti-phospho-histone-H2AX (Merck Millipore) mouse monoclonal antibody (1/2000, 11 hours, RT). HRP-conjugated rabbit anti-mouse IgG1 secondary antibody (Hypoxyprobe, 1/100, 30 minutes, RT) was used to detect pimonidazole adduct and a biotinylated goat anti-mouse IgG1 secondary antibody (Vector Laboratories, 1/500, 1 hour) was used to detect anti-Ki-67 and anti-phospho-histone-H2AX. Biotin was then complexed with streptavidin-coupled HRP (Vector Laboratories, 1/500, 30 minutes). HRP was detected using a DAB ultravision detection system (Thermo Scientific).
# [4] = system: HEMC-SS spheroids; assay: In vitro proliferation assay (AlamarBlue), HEMC-SS Day 10 spheroids; assay type: cell-based, human; conditions: for IC50: Homo sapiens, 24 hours exposure then 48 hours in normoxia; for HCR (hypoxic-cytotoxic ratio) Spheroids: normoxia vs hypoxia IC50
# Method: To generate HEMC-SS spheroids, cells were harvested from culture flasks by trypsinization and seeded in 96-well non-adherent plates (Nunc) with 100 μL of 0.5% methylcellulose (Bio-Techne) diluted in the corresponding medium at a density of 1000 cells per well. Cultures were maintained in a 5% CO2 humidified environment at 37°C.
# as §1
# [5] = Side-effect evaluation (mouse weight, hematology, articular cartilage); assay type: in vivo, SCID mice; conditions: compared to controls; for Mouse weight loss during treatment: 6 i.v. injections at 4-day intervals
# Method: To assess side effects, mouse weight was monitored and pathology analyses on healthy articular cartilage and hematological analyses were carried out at 24 hours after the last injection. Approximately 50 μL of blood, obtained by retro-orbital sampling, were analyzed on a Melet Schloesing MS9-5 Hematology Analyzer (n = 5 blood samples per group of treatment) (Diamond diagnostics).
# Mouse paws (n = 5 per group of treatment) were fixed in 10% neutral buffer formalin, decalcified with 4.13% EDTA and 0.2% paraformaldehyde in PBS for 96 hours using KOS microwave tissue processor (Milestone), and embedded in paraffin. Then, 4–5-μm thick sections were stained by Toluidine Blue (pH 2.5) to visualize aggrecan or by Masson trichrome to visualize collagen. All images were captured with NanoZoomer (Hamamatsu).
# [6] = system: aggrecan from bovine articular cartilage; assay: Surface plasmon resonance (SPR) binding to immobilized aggrecan; conditions: for Binding to aggrecan (sensorgrams): analytes injected at 0.0625-1 mM, 600 seconds; for Kd: steady-state affinity analysis, ligand: immobilized aggrecan, triplicate, read-out: Dissociation constant (KD)
# Method: SPR assay was carried out on a Biacore T200 instrument (GE Healthcare) with a CM4 sensor chip (GE Healthcare). To immobilize aggrecan from bovine articular cartilage (Sigma-Aldrich), the sensor chip was first activated using a 1:1 mixture of 0.2 M 1-ethyl-3-(3-dimethylaminopropyl)carbodiimide hydrochloride and 0.5 M N-hydroxysuccinimide (amine coupling kit, GE Healthcare) at a flow rate of 5 μL/min for 10 minutes. Aggrecan was then coated on the sensor chip at 400 μg/mL in running buffer HBS-P^+ 1X (0.01 M HEPES, 0.15 M NaCl, 0.05% v/v surfactant p20, pH 7.4) with 6 mM hexadecyltrimethylammoniumbromide (CTAB) at 5 μL/min to a level of ~500 response units. Unoccupied binding sites were blocked using 1 M ethanolamine (pH 8.5) (Amine coupling kit, GE Healthcare) at 5 μL/min during 10 minutes. The studied molecules (analytes) were diluted in running buffer HBS-P^+ 1X before application to the sensor chip at 30 μL/min. Regeneration of the sensor chips was achieved using 2 M NaCl solution during 150 seconds. Dissociation constants (KD) were determined using Biacore T200 Evaluation software with a “steady-state affinity analysis” after injection of five different concentrations of analytes.
# [7] = system: human osteosarcoma Saos-2 cells; assay: Cytotoxic activity on osteosarcoma Saos-2 cells; assay type: cell-based; conditions: hypoxic conditions, unpublished data of the authors
# [8] = system: HEMC-SS cells; assay: Cell cycle determination and apoptosis (Annexin V) evaluation by flow cytometry; assay type: cell-based, human
# Method: At 24 hours before treatment, 1.10^6 HEMC-SS cells were seeded in 6-well plates (Nunc) at 3 mL/well of corresponding culture media. Cells were treated with 8-QA compound at 25 μM, 50 μM, or 100 μM final concentrations for 24 hours, under either normoxic (21% O2, 5% CO2, 37°C) or hypoxic (N2, O2 < 0.3%, N2, 37°C) conditions. After incubation, the cells were harvested by trypsinization. The cell suspension containing both floating and adherent cells was centrifuged (400 g, 8 min at +4°C) in PBS. Cell cycle analyses were carried out by resuspending cells in 500 μL of ribonuclease 1 (1 mg/mL) added with 500 μL of propidium iodide (1 mg/mL) (Sigma Aldrich), and apoptotic cells were detected using the Annexin V-FITC kit (Miltenyi Biotec). The cell cycle distribution and proportion of apoptotic cells were analyzed by flow cytometrey (LSR II flow cytometer, BD Biosciences). Experiments were performed in triplicates. Data are represented as means ± SD. For cell cycle analyses, statistical significance was determined using two-way ANOVA followed by Tukey's post-hoc multiple comparison test. For Annexin V test, significance was determined using two-way ANOVA followed by Bonferroni's post-hoc multiple comparison test.
# [9] = hypoxia (N2, O2 < 0.3%), 24 hours exposure then 48 hours in normoxia, read-out: IC50 Monolayer Hypoxia
# [10] = normoxia (21% O2), 24 hours exposure then 48 hours in normoxia, read-out: IC50 Monolayer Normoxia
# [11] = hypoxia (N2, O2 < 0.3%), read-out: IC50 Spheroids Hypoxia
# [12] = normoxia (21% O2), read-out: IC50 Spheroids Normoxia
# [13] = tumors sampled one day after last injection
Compound,"IC50 [1, 9]","IC50 [1, 10]",Antitumor effect (tumor volume vs controls) [2],γH2AX-positive cells in pimonidazole-positive hypoxic tumor areas [3],"IC50 [4, 11]","IC50 [4, 12]",Mouse weight loss during treatment [5],Binding to aggrecan (sensorgrams) [6],Kd [6],HCR (hypoxic-cytotoxic ratio) Monolayer [1],S/M (spheroid/monolayer cytotoxic ratio) Hypoxia [4],S/M (spheroid/monolayer cytotoxic ratio) Normoxia [4],HCR (hypoxic-cytotoxic ratio) Spheroids [4],other results
C[N+](C)(C)CCCNP(=O)(OCc1ccccc1)N(CCCl)CCCl (stereo not shown) [10-QA],> 200 µM,> 200 µM,no antitumor effect,did not cause any γH2AX-positive cells,> 200 µM,> 200 µM,did not cause any weight loss,dose-dependent binding,4100 µM,–,–,–,–,IC50 ([1]; read-out: IC50 (cytotoxicity in any of the experimental conditions)): > 200 µM
Cn1c(COP(=O)(NCCC[N+](C)(C)C)N(CCCl)CCCl)cnc1[N+](=O)[O-] (stereo not shown) [8-QA],4.3 ± 1.2 µM,29.3 ± 8 µM,significant antitumor effect,strong increase of γH2AX-positive cells,31.8 ± 5.5 µM,101 ± 32.6 µM,did not cause any weight loss,dose-dependent binding,890 µM,6.8,7.4,3.4,3.1,"IC50 [7]: 132 ± 29 µM; Tumor growth inhibition (TGI) at D41 ([2]; 47 μmol/kg i.v., q4d x 6, day after last injection (D41)): 62.1%; Tumor weight ([2]; one day after the last injection, normalized to control group): significant decrease; Mitotic index in tumor tissues ([3]; H&E, tumors sampled at D41, 47.0 μmol/kg i.v. q4d x 6): 9.7 ± 9.0 mitosis per 10 fields; Phosphorylated-p53 (S15) in tumors, western blot [3, 13]: significant increased of phosphorylated-p53 (S15); p21 in tumors, western blot [3, 13]: induction of p21; p-CHK1 in treated tumor samples, western blot [3, 13]: no increase of p-CHK1; Cell cycle distribution in hypoxia ([8]; hypoxia (N2, O2 < 0.3%), 25, 50, 100 μM for 24 hours): high accumulation of cells in S and SubG0/G1 phases; Annexin V positive cells (cell death vs control) ([8]; hypoxia, 100 μM, 24 hours): 4.1 fold; Cell cycle distribution in normoxia ([8]; normoxia (21% O2), 25, 50, 100 μM for 24 hours): increase in S-phase"
CCCNP(=O)(OCc1cnc([N+](=O)[O-])n1C)N(CCCl)CCCl (stereo not shown) [compound 8],4.3 ± 1.2 µM,32.5 ± 4.3 µM,no antitumor efficacy,did not cause any γH2AX-positive cells,5.7 ± 1.2 µM,99.4 ± 5.2 µM,did not cause any weight loss,no affinity,–,7.5,1.3,3.1,17.4,White blood cell count ([5]; 24 hours after the last dose): significant decrease in white blood cell count
